Experimental data from publication PMC6941357, “An in vitro toolbox to accelerate anti-malarial drug discovery and development” (Malaria Journal, 2020).
Values after ≈ are worked out from the molar mass of the structure shown. Values joined by “and” are separate entries in the source; they are usually repeats but may differ in a detail not shown here. Equal entries are not always repeated.

What was measured:
[1] = Solubility limited absorbable dose (SLAD) calculation with predicted human jejunal Peff; settings: for solubility: FaSSIF; for An (absorption number): Peff × tres/R, minimum 1; for Permeability classification: based on ref 80 and control compounds; for Predicted human Peff: from Caco-2 Papp via calibration plot; for Ssi (estimated solubility in the small intestine): based on measured FaSSIF solubility
From the text: Predicted Peff values were obtained from a calibration plot of literature Peff values vs measured Caco-2 Papp using either buffer or plasma as the transport medium (see Results section).

human plasma = settings: methods UF, ED, EP or not described per compound, ref [6]–[22] of Additional file 1; cited from earlier work
CYP3A4 = CYP3A4 (Homo sapiens, UniProt P08684); assay: Cytochrome P450 inhibition in human liver microsomes; settings: for inhibition at 20 µM: human
Sequence of CYP3A4 (P08684 whole entry, canonical isoform): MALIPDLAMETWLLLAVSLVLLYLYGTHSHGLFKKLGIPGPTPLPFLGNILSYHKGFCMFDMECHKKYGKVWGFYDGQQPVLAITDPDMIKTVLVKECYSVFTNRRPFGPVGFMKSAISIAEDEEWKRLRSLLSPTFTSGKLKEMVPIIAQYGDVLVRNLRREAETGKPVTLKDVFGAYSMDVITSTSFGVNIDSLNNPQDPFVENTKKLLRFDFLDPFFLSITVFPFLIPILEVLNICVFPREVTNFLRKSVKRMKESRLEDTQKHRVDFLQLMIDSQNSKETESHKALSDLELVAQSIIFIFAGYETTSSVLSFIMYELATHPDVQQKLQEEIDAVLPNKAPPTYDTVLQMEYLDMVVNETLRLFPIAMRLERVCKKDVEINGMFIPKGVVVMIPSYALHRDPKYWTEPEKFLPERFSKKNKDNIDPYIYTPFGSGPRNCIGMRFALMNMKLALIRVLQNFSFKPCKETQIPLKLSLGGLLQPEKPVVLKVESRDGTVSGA
Procedure, shortened: (§1)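 Substrate-specific interaction method in human liver microsomes: the test compound's effect on production of a single isoform-dependent metabolite, quantified by LC–MS using diazepam as internal standard, is reported as percent inhibition of enzyme activity. Substrate Km was determined under the same incubation conditions.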

CYP2C19 = CYP2C19 (Homo sapiens, UniProt P33261); assay: as above; settings: for inhibition at 20 µM: human, pH 7.4
Sequence of CYP2C19 (P33261 whole entry): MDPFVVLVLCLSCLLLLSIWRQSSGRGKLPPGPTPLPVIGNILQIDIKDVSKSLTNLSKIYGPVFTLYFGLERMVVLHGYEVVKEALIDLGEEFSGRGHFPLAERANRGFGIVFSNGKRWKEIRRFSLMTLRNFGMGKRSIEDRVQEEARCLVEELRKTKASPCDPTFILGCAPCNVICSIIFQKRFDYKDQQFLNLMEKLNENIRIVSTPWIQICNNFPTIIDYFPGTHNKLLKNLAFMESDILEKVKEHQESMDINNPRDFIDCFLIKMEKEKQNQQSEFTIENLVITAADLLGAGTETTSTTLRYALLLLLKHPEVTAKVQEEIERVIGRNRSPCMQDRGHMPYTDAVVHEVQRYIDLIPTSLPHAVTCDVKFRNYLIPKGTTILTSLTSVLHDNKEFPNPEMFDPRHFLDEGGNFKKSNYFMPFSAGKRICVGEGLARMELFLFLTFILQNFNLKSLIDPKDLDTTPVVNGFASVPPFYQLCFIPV
Procedure, shortened: as §1

CYP2C9 = CYP2C9 (Homo sapiens, UniProt P11712); assay: as above
Sequence of CYP2C9 (P11712 whole entry): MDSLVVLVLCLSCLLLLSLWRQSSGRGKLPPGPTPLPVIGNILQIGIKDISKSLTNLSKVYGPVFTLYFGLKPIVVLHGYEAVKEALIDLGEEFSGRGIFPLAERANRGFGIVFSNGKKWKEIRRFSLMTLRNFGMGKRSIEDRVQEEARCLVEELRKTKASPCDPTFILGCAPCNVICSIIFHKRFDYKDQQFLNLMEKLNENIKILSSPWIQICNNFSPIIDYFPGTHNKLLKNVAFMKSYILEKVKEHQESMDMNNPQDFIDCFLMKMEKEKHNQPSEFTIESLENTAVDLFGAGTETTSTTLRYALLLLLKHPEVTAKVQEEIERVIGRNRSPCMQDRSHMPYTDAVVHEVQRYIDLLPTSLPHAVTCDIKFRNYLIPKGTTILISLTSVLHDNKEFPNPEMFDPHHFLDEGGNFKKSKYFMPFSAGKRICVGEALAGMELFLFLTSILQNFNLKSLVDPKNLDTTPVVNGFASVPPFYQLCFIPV
Procedure, shortened: as §1

CYP1A2 = molecular target: T1, CYP1A2 (Homo sapiens, UniProt P05177); assay: as above
T1 sequence (P05177 1-516): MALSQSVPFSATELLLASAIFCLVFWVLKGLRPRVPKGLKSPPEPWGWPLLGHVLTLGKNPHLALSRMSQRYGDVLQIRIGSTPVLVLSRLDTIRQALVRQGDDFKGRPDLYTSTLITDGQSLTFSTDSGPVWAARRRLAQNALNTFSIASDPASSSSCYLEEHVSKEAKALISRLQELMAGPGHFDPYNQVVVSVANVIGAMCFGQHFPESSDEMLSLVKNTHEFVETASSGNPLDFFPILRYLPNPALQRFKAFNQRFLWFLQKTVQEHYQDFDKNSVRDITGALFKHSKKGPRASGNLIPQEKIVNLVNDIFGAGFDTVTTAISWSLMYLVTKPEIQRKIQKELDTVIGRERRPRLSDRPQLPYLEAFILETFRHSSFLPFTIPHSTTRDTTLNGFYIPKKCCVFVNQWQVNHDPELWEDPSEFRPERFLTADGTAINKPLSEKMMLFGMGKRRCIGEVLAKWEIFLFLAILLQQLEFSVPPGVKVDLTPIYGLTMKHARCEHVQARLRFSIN
Procedure, shortened: as §1

Caco-2 cell monolayers = assay: Bidirectional permeability across Caco-2 cell monolayers; settings: matrix: pH 7.4 buffer
Procedure, shortened: (§2)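 Transport run in both directions with either HBSS/20 mM HEPES pH 7.4 or human plasma in apical and basolateral chambers, 0.1% v/v DMSO in donor. Donor and acceptor samples quantified by LC–MS; Papp and mass balance calculated, with plasma Papp corrected for donor fraction unbound. Efflux ratio = mean B–A/A–B Papp.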

[2] = as above; settings: human
Procedure, shortened: as §2

[3] = Blood to plasma partitioning; format: in vitro ADME, human; settings: 37 °C; for B/P (whole blood to plasma partitioning ratio): human whole blood; for blood plasma ratio at 1000 ng/mL: human, whole blood, pH 7.4, human whole blood, read-out: B/P (whole blood to plasma partitioning ratio)
Method: Human whole blood was collected and supplied by the Volunteer Blood Donor Registry (Clinical Translation Centre, Walter & Eliza Hall Institute of Medical Research, Parkville, Australia) and used on the day of collection. The haematocrit (Hct) was determined by centrifugation (13,000×g for 3 min using Clemets® Microhaematocrit centrifuge and Safecap® Plain Self-sealing Mylar wrapped capillary tubes) to ensure it was between 0.40 and 0.48. An aliquot was centrifuged (Heraeus, Multifuge 3 S-R; 4500×g) for 10 min to obtain plasma required for matrix matching purposes as described below.
Two aliquots of the spiked whole blood were transferred to fresh microcentrifuge tubes and maintained at 37 °C/5% CO2 in a humidified incubator. The pH was confirmed to be 7.4 ± 0.1 at the start and end of the incubation. At each time point (30 min and 4 h), one whole blood tube was removed from the incubator and mixed by gentle inversion, after which four replicate blood samples were taken and matrix matched with an equal volume of blank plasma. The remainder of the blood sample was centrifuged (Eppendorf, Mini Spin plus; 6700×g) for 2 min for the collection of 4 replicate plasma samples which were similarly matrix matched with an equal volume of blank whole blood. The 1:1 mixtures of blood/plasma were mixed, snap frozen in dry ice and stored at − 80 °C until analysis by LC–MS (Additional file 1: Table S2) against calibration standards prepared in the same mixed matrix. Any further distribution of compound into RBCs at this stage was irrelevant as the cells were lysed during the sample preparation and the total concentration in the mixed matrix was measured for both the calibration standards and samples.
The apparent whole blood-to-plasma partitioning ratio (B/P) was calculated as the ratio of the average concentration in the blood sample to that in the plasma fraction of the same whole blood sample. A standard deviation (SD) for each B/P value was calculated using the propagation of errors approach as described previously.

[4] = CYP3A4 (midaz) IC50, human liver microsomes, CYP3A4 (midaz), highest concentration tested 20 µM
[5] = CYP3A4 (test) IC50, human liver microsomes, CYP3A4 (test), highest concentration tested 20 µM
[6] = microsomes, pH 7.4, CYP3A4 (test) % inhibition at max conc
[7] = Caco-2, pH 7.4, A–B Papp, matrix: pH 7.4 buffer
[8] = Caco-2, A–B Papp, matrix: human plasma, corrected for fu

SMILES | solubility [1] | An (absorption number) [1] | SLAD ([1]; Ssi × V (500 mL) × Mp) | Permeability classification [1] | Predicted human Peff [1] | Literature fu (human plasma) | IC50 (CYP3A4; [4]) | IC50 (CYP3A4; [5]) | inhibition at 20 µM (CYP3A4; [6]) | IC50 (CYP2C19) | CYP2C19 % inhibition at max conc (CYP2C19; microsomes) | IC50 (CYP2C9) | CYP2C9 % inhibition at max conc (CYP2C9; microsomes) | IC50 (CYP1A2) | CYP1A2 % inhibition at max conc (CYP1A2; microsomes) | A–B Papp (Caco-2 cell monolayers) | Papp B→A ([2]; Caco-2, pH 7.4) | Papp A→B [2, 7] | inhibition at 20 µM (CYP2C19; microsomes) | CYP3A4 (midaz) % inhibition at max conc (CYP3A4; microsomes) | further results
CO[C@H]1O[C@@H]2O[C@@]3(C)CC[C@H]4[C@H](C)CC[C@@H]([C@H]1C)[C@@]24OO3 [Artemether] | 166 µg/mL (≈ 556 µM) | 4.7 | 388 mg | High (> 85% absorption (high)) | 3.9 10^−4 cm/s | 0.046 | > 20 µM | > 20 µM | 37% | > 20 µM | nmi | > 20 µM | nmi | > 20 µM | nmi | 46.3 10^−6 cm/s | 42 ± 5.6 ×10⁻⁶ cm/s | 39.1 ×10⁻⁶ cm/s |  |  | inhibition at 20 µM (CYP3A4; microsomes, pH 7.4, CYP3A4 (midaz) % inhibition at max conc): 39%
CC[C@H]1OC(=O)[C@H](C)[C@@H](O[C@H]2C[C@@](C)(OC)[C@@H](O)[C@H](C)O2)[C@H](C)[C@@H](O[C@@H]2O[C@H](C)C[C@H](N(C)C)[C@H]2O)[C@](C)(O)C[C@@H](C)CN(C)[C@H](C)[C@@H](O)[C@]1(C)O [Azithromycin] |  | 1.0 | 720 mg | Low (< 50% absorption (low)) | 0.16 10^−4 cm/s | 0.5-0.88 |  |  |  | > 20 µM |  | > 20 µM | nmi | > 20 µM | nmi | 0.37 10^−6 cm/s and 0.38 10^−6 cm/s | 13 ± 3.9 ×10⁻⁶ cm/s |  | 29% |  | A–B Papp (Caco-2 cell monolayers; listed as azithromycin): < 5 10^−6 cm/s
CC(C)NC(=N)NC(=N)Nc1ccc(Cl)c(Cl)c1 [Chlorproguanil] | 1100 µg/mL (≈ 3820 µM) | 1.8 | 998 mg | High (> 85% absorption (high)) | 1.5 10^−4 cm/s |  | > 20 µM | > 20 µM | 41% | > 20 µM |  | > 20 µM | nmi | > 20 µM | nmi |  |  |  | 39% | nmi | B/P (whole blood to plasma partitioning ratio) [3]: 3.3 ± 0.38; blood plasma ratio at 1000 ng/mL [3]: > 3; Papp B→A ([2]; Caco-2): 61 ± 7.4 ×10⁻⁶ cm/s; efflux ratio ([2]; Caco-2): 3.2; Papp A→B [2, 8]: 19 ± 3 ×10⁻⁶ cm/s
Cc1cc(Nc2ccc(C(F)(F)F)nc2)n2nc(C(C)(F)F)nc2n1 [DSM421] |  | 3.9 |  | High (> 85% absorption (high)) | 3.3 10^−4 cm/s |  |  |  |  |  |  |  |  |  |  |  |  |  |  |  | SLAD [1]: 182 mg; Ssi (estimated solubility in the small intestine) [1]: 93.0 µg/mL; B/P (whole blood to plasma partitioning ratio) [3]: 0.53 ± 0.03
C[C@H]1c2cccc(O)c2C(=O)C2=C(O)[C@]3(O)C(=O)C(C(N)=O)=C(O)[C@@H](N(C)C)[C@@H]3[C@@H](O)[C@@H]21 [Doxycyclin] | > 2000 µg/mL | 1.0 | > 1000 mg | Intermediate (50–84% absorption (intermediate)) | 0.70 10^−4 cm/s | 0.12 | > 20 µM | > 20 µM | 22% | > 20 µM | nmi | > 20 µM | nmi |  |  | 3.4 ± 0.23 10^−6 cm/s | 4.2 ± 0.29 ×10⁻⁶ cm/s | < 5 ×10⁻⁶ cm/s |  | nmi | 
C[C@H]1Cc2c([nH]c3cc(Cl)c(F)cc23)[C@@]2(N1)C(=O)Nc1ccc(Cl)cc12 [KAE609] | 111 µg/mL (≈ 284 µM) | 13 | 738 mg | High (> 85% absorption (high)) | 11 10^−4 cm/s |  | > 20 µM | > 20 µM | 30% | < 0.25 µM |  | 5.5 µM |  | 4.5 µM |  |  |  |  |  | nmi | Ki (CYP2C19): < 0.15 µM; Ki (CYP2C9): 4 µM; Ki (CYP1A2): 2.7 µM; blood plasma ratio at 1000 ng/mL [3]: 0.66 ± 0.04; Papp B→A ([2]; Caco-2): > 300 ×10⁻⁶ cm/s; Papp A→B [2, 8]: > 300 ×10⁻⁶ cm/s
Cc1nc(Nc2ncc(N3CCN(C)[C@H](C)C3)c(Nc3cc(C)n(C)n3)n2)cc(C2CC2)c1F [MMV253] | 569 µg/mL (≈ 1220 µM) | 8.1 | 2300 mg | High (> 85% absorption (high)) | 6.8 10^−4 cm/s |  |  | > 20 µM | 37% |  |  | > 20 µM | nmi | > 20 µM | nmi |  |  |  |  |  | blood plasma ratio at 1000 ng/mL [3]: 1 ± 0.05; Papp B→A ([2]; Caco-2): 150 ± 23 ×10⁻⁶ cm/s; efflux ratio ([2]; Caco-2): 1; Papp A→B [2, 8]: 150 ± 29 ×10⁻⁶ cm/s
CC(C)(C)NCc1cc(Nc2ccnc3cc(Cl)ccc23)c2c(c1O)CCCC2 [Naphthoquine] |  | 11 |  | High (> 85% absorption (high)) | 9.2 10^−4 cm/s |  |  |  |  |  | nmi |  | nmi |  | 33% |  |  |  |  | 41% | SLAD [1]: 2250 mg; Ssi (estimated solubility in the small intestine) [1]: 410 µg/mL; CYP3A4 (test) % inhibition at max conc (CYP3A4; microsomes): 38%; IC50 (CYP3A4; microsomes): > 20 µM; IC50 (CYP2C19; microsomes): > 20 µM; IC50 (CYP2C9; microsomes): > 20 µM; IC50 (CYP1A2; microsomes): > 20 µM; B/P (whole blood to plasma partitioning ratio) [3]: 1.14 ± 0.10
[H]/N=C(\N/C(=N/[H])Nc1ccc(Cl)cc1)NC(C)C [Proguanil] | > 2000 µg/mL | 1.0 | > 1000 mg | Intermediate (50–84% absorption (intermediate)) | 0.71 10^−4 cm/s | 0.25 |  |  | 24% | > 20 µM |  | > 20 µM | nmi | > 20 µM | nmi | 3.5 ± 0.75 10^−6 cm/s | 7.9 ± 0.51 ×10⁻⁶ cm/s | < 5 ×10⁻⁶ cm/s | 27% | nmi | 
COc1ncnc(NS(=O)(=O)c2ccc(N)cc2)c1OC [Sulfadoxine] | 858 µg/mL (≈ 2760 µM) | 2.2 | 959 mg | High (> 85% absorption (high)) | 1.9 10^−4 cm/s | 0.05-0.1 |  |  |  | > 20 µM | nmi | > 20 µM | nmi | > 20 µM | nmi |  | 23 ± 2.8 ×10⁻⁶ cm/s | 15 ± 2.5 ×10⁻⁶ cm/s |  | nmi | CYP3A4 (test) % inhibition at max conc (CYP3A4; microsomes): nmi
